Test results from US20150111833A1, “Method Of Treating An Ocular Disease And Compositions Effective For Treating An Ocular Disease” (Howard University, priority 2012, published 2015).

Test system: endophthalmitis
Assay: Combination therapy treatment of severe endophthalmitis in a human subject (case report)
Assay type: in vivo
Details: initial regimen without cyclosporin A: intravitreal Vancomycin and Ceftazidime, then Ceftazidime, Vancomycin and Prednisolone eye drops every two hours; over the next two days
Protocol: A uniocular subject was diagnosed with severe endophthalmitis in their only functioning eye. […] The subject was treated with an aggressive treatment regimen of antibiotics (Intra Vitreal injection of Vancomycin and Ceftazidime) followed by Ceftazidime eye drops. Vancomycin eye drops and steroid Prednisolone eye drops every two hours.
Cyclosporin A (sold as […]® from Allergan, Inc.) was added to the treatment regimen and was administered prior to administering the antibiotic and steroid eye drops.
The Ceftriaxone was added to the regimen to increase the aggressiveness of the therapy with the goal of preventing or eliminating any traces of infection in the retina, which can result in irreversible blindness.

For `CC(C)(O/N=C(\C(=O)N[C@@H]1C(=O)N2C(C(=O)[O-])=C(C[n+]3ccccc3)CS[C@H]12)c1csc(N)n1)C(=O)O` [Ceftazidime], which “improvement of the subject” value is on record?
The value was “no improvement”.

With `C[C@]12C=CC(=O)C=C1CC[C@@H]1[C@@H]2[C@@H](O)C[C@@]2(C)[C@H]1CC[C@]2(O)C(=O)CO` [Prednisolone] as the compound, how does the “improvement of the subject” value read?
The value was “no improvement”.

Which “improvement of the subject” value does the source give for `CN[C@H](CC(C)C)C(=O)N[C@H]1C(=O)N[C@@H](CC(N)=O)C(=O)N[C@H]2C(=O)N[C@H]3C(=O)N[C@H](C(=O)N[C@H](C(=O)O)c4cc(O)cc(O)c4-c4cc3ccc4O)[C@H](O)c3ccc(c(Cl)c3)Oc3cc2cc(c3O[C@@H]2O[C@H](CO)[C@@H](O)[C@H](O)[C@H]2O[C@H]2C[C@](C)(N)[C@H](O)[C@H](C)O2)Oc2ccc(cc2Cl)[C@H]1O` [Vancomycin] here?
The value was “no improvement”.
